Measurements published in patent publication US20060025485A1, “Hydroxybenazamide compounds for treatment of cancer” (priority 2004, published 2006).
Entries after “also recorded” stand apart in the source; their conditions may differ. Like-named read-outs stand apart in the source and are kept apart here.

How the values were obtained:
[1] = system: p-MAPK; assay: Western blot of p-MAPK, MiaPaCa-2 cells; format: cell-based; conditions: all concentrations tested
From the text: (§1) The results were assay using standard MTT, Western blot and cytoxocity assays.

[2] = system: BON cells
Protocol: (§2) Cells tested (H727 and BON) were harvested by trypsinization and plated at a cell density of 3,000 cells/well of each microtiter plate. Cells were grown for 4 hrs at 37° C., with 5% CO2 in a humidified incubator to allow cell attachment to occur before compound addition. […] 10 μl of each compound stock was added to duplicate microtiter plates for each cell line. The final concentration of DMSO in all wells was 1%. To test 200 μM, 2% DMSO was added to each well. Data was compared to the effect of 2% DMSO. All compounds were tested in duplicate. Cells were incubated with the test compounds for 72 hrs before reading the assay. Then processing and calculation were performed according to manufacturer's directions for Cell Titer Glo Assay (Promega, Madison, Wis.).

[3] = system: TT medullary thyroid cancer cells; assay: MTT assay, TT cells; format: cell-based; conditions: 100 μM, versus DMSO
[4] = system: MiaPaCa-2; assay: cell morphology after 9-day treatment, MiaPaCa-2 cells; format: cell-based
From the text: as §1

[5] = system: HepG2; assay: HepG2 MTT Assay; format: cell-based; conditions: HepG2, three concentrations
Protocol: FIG. 18—HepG2 MTT Assay. The MTT assay is a laboratory test for measuring cellular proliferation (cell growth). MTT is added to a cell culture and is modified into a dye by enzymes associated with metabolic activity in a live cell. MTT is short for 3-(4,5-dimethylthiazol-2-yl)-2,5-diphenyltetrazolium bromide.
as §1

[6] = system: hASH1; assay: Western analysis of hASH1, BON cells; format: cell-based, human; conditions: 20 μM and 100 μM, 2 days
Protocol: ZM 336372 treatment. H727 and BON cells were plated at 50-60% confluence in 100 mm cell culture dishes and incubated overnight.
Western blot analysis. Cellular extracts were prepared and quantified by BCA protein assay kit (Pierce, Rockford, Ill.) as previously described (Sippel et al., 2003). 30-50 μg of denatured proteins from each sample underwent electrophoresis on a SDS-polyacrylamide gel and transferred to a nitrocellulose membranes (Schleicher and Schuell, Keene, N.H.). Membranes were blocked for 1 hr in milk solution (1×PBS, 5% non-fat dry milk, 0.05% Tween-20) and then incubated at 4° C. overnight with primary antibodies. The following primary antibody dilutions were used: phospho-ERK 1/2 (1:1,000); phospho-MEK (1:1,000); phospho-Raf-1 (Serine338) (1:1,000); p21 and p18, (1:1,000); (Cell Signal Technology, Beverly, Mass.), Chromogranin A (1:2,000; Zymed Laboratories, San Francisco, Calif.); MASH-1 (1:1000, BD Pharmingen) and G3PDH (1:10,000; Trevigen, Gaithersburg, Md.). After primary antibody incubation, membranes were washed 3×5 min in PBS-T wash buffer (1×PBS, 0.05% Tween 20). Then the membranes were incubated with either 1:2,000 dilution of goat anti-rabbit or goat anti-mouse secondary antibody (Cell Signal Technology, Beverly, Mass.) depending on the source of the primary antibody for 1 hr at room temperature. […]

[7] = system: Panc-1 cells; assay: cell morphology after 9-day treatment, Panc-1 cells; format: cell-based; conditions: Panc-1, 100 μM, 9-day cycle
From the text: as §1

[8] = system: raf-1; conditions: cited from earlier work
[9] = system: p-MAPK; assay: Western blot of p-MAPK, Panc-1 cells; format: cell-based; conditions: all concentrations tested
From the text: as §1

[10] = system: pMEK and p-MAPK; assay: Western blot of pMEK and p-MAPK, HepG2 cells; format: cell-based
From the text: as §1

[11] = system: HepG2 cells, a hepatocellular cancer cell line; assay: cell morphology after 9-day treatment, HepG2 cells; format: cell-based
From the text: as §1

[12] = system: H727 cells
Protocol: as §2

## Cc1ccc(NC(=O)c2cccc(N(C)C)c2)cc1NC(=O)c1ccc(O)cc1 [ZM336372, N-[5-(dimethyl-aminobensamido)-2-methylphenyl]-4-hydroxybenzamide]
[1]
  p-MAPK level: increase in p-MAPK following treatment at all concentrations tested
[2]
  IC50 (cytotoxicity): did not produce enough cellular cytotoxicity to estimate an IC50
[3]
  growth of TT cells (MTT): clear suppression of growth
[4]; MiaPaCa-2, 100 μM, 9-day cycle
  cell death: significant cell death
[4]; MiaPaCa-2, 100 microM, day 9
  cell numbers in culture: dramatic decrease in cell numbers
[5]
  cellular proliferation (MTT): effects at low concentrations; also recorded: reduction in cellular proliferation
[6]
  hASH1 level: reduction in both CgA and hASH1; also recorded: dose dependent decrease
[7]
  cell death: significant cell death
[8]; COS1 cells
  activation of raf-1: > 100 fold
[8]; NIH3T3 cells
  activation of raf-1: > 100 fold
[8]; PC12 cells
  activation of raf-1: > 100 fold
[8]; Swiss 3T3 cells
  raf-1 activation compared with EGF stimulation: much higher than that attained after stimulation with epidermal growth factor (EGF)
  time for which induction of raf-1 was sustained: at least 3 hours
  time of exposure after which induction of raf-1 occurred: 60 min
[8]; human 293 cells
  activation of raf-1: > 100 fold
[9]
  p-MAPK level: increase in p-MAPK following treatment at all concentrations tested
[10]
  p-MAPK level: increase in the levels of both pMEK and p-MAPK
  pMEK level: increase in the levels of both pMEK and p-MAPK
[11]; HepG2, 100 μM, 9-day cycle
  cell death: significant cell death
[11]; HepG2, 50 microM, day 9, versus DMSO control
  cell growth in culture: clear difference in cell growth
[11]; HepG2, low concentrations, 9-day cycle
  cytopathology: cytopathology at low concentrations
[12]
  IC50 (cytotoxicity): did not produce enough cellular cytotoxicity to estimate an IC50
